Test system: Metabolism protein genes
Assay: DNA chip mRNA expression in yeast, metabolism protein genes (Table 7)
Type: cell-based, Saccharomyces cerevisiae S288C
How it was run: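 S. cerevisiae S288C grown at 25° C in YPD were exposed in log phase for two hours to one toxic chemical at a growth-inhibiting, non-lethal concentration; untreated cells served as control. Poly(A) mRNA was reverse-transcribed with Cy3/Cy5-dUTP and hybridized to a whole-genome yeast DNA chip at 65° C for over 12 hours; values are fluorescence ratios versus untreated.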

SMILES: [Cl][Pb][Cl] [(4), PbCl2]
- The level of expressed mRNA in the presence of chemical substance/The level of expressed mRNA in the absence of chemical substance (yeast gene YJR155W): 2.5
- The level of expressed mRNA in the presence of chemical substance/The level of expressed mRNA in the absence of chemical substance (yeast gene YKL035W): 1.2
- level of expressed mRNA in the presence/in the absence of chemical substance (yeast gene YKL060C): 1.0
- The level of expressed mRNA in the presence of chemical substance/The level of expressed mRNA in the absence of chemical substance (yeast gene YKL091C): 2.6
- The level of expressed mRNA in the presence of chemical substance/The level of expressed mRNA in the absence of chemical substance (yeast gene YKL104C): 1.2
- level of expressed mRNA in the presence/in the absence of chemical substance (yeast gene YKL148C): 0.7
- The level of expressed mRNA in the presence of chemical substance/The level of expressed mRNA in the absence of chemical substance (yeast gene YKL152C): 0.9
- level of expressed mRNA in the presence/in the absence of chemical substance (yeast gene YKL157W): 1.3
- The level of expressed mRNA in the presence of chemical substance/The level of expressed mRNA in the absence of chemical substance (yeast gene YKL213C): 1.3
- The level of expressed mRNA in the presence of chemical substance/The level of expressed mRNA in the absence of chemical substance (yeast gene YKL215C): 0.8
- level of expressed mRNA in the presence/in the absence of chemical substance (yeast gene YKR034W): 4.7
- The level of expressed mRNA in the presence of chemical substance/The level of expressed mRNA in the absence of chemical substance (yeast gene YLL058W): 0.9
- level of expressed mRNA in the presence/in the absence of chemical substance (yeast gene YLR006C): 6.2
- level of expressed mRNA in the presence/in the absence of chemical substance (yeast gene YLR044C): 0.9
- level of expressed mRNA in the presence/in the absence of chemical substance (yeast gene YLR056W): 0.8
- level of expressed mRNA in the presence/in the absence of chemical substance (yeast gene YLR058C): 2.6
- level of expressed mRNA in the presence/in the absence of chemical substance (yeast gene YLR081W): 3.6
- level of expressed mRNA in the presence/in the absence of chemical substance (yeast gene YLR089C): 0.9
- The level of expressed mRNA in the presence of chemical substance/The level of expressed mRNA in the absence of chemical substance (yeast gene YLR180W): 1.0
- The level of expressed mRNA in the presence of chemical substance/The level of expressed mRNA in the absence of chemical substance (yeast gene YLR273C): 2.4
- level of expressed mRNA in the presence/in the absence of chemical substance (yeast gene YLR284C): 1.9
- The level of expressed mRNA in the presence of chemical substance/The level of expressed mRNA in the absence of chemical substance (yeast gene YLR299W): 1.3
- The level of expressed mRNA in the presence of chemical substance/The level of expressed mRNA in the absence of chemical substance (yeast gene YLR300W): 1.0
- level of expressed mRNA in the presence/in the absence of chemical substance (yeast gene YLR304C): 0.7
- The level of expressed mRNA in the presence of chemical substance/The level of expressed mRNA in the absence of chemical substance (yeast gene YLR307W): 3.3
- The level of expressed mRNA in the presence of chemical substance/The level of expressed mRNA in the absence of chemical substance (yeast gene YLR348C): 1.2
- level of expressed mRNA in the presence/in the absence of chemical substance (yeast gene YLR354C): 1.5
- level of expressed mRNA in the presence/in the absence of chemical substance (yeast gene YLR372W): 0.8
- level of expressed mRNA in the presence/in the absence of chemical substance (yeast gene YML022W): 1.1
- The level of expressed mRNA in the presence of chemical substance/The level of expressed mRNA in the absence of chemical substance (yeast gene YML054C): 3.4
- The level of expressed mRNA in the presence of chemical substance/The level of expressed mRNA in the absence of chemical substance (yeast gene YML070W): 1.9
- The level of expressed mRNA in the presence of chemical substance/The level of expressed mRNA in the absence of chemical substance (yeast gene YML100W): 1.4
- The level of expressed mRNA in the presence of chemical substance/The level of expressed mRNA in the absence of chemical substance (yeast gene YMR008C): 1.0
- level of expressed mRNA in the presence/in the absence of chemical substance (yeast gene YMR011W): 5.5
- level of expressed mRNA in the presence/in the absence of chemical substance (yeast gene YMR015C): 0.9
- The level of expressed mRNA in the presence of chemical substance/The level of expressed mRNA in the absence of chemical substance (yeast gene YMR020W): 1.7
- level of expressed mRNA in the presence/in the absence of chemical substance (yeast gene YMR083W): 1.1
- The level of expressed mRNA in the presence of chemical substance/The level of expressed mRNA in the absence of chemical substance (yeast gene YMR105C): 4.2
- The level of expressed mRNA in the presence of chemical substance/The level of expressed mRNA in the absence of chemical substance (yeast gene YMR189W): 2.8
- level of expressed mRNA in the presence/in the absence of chemical substance (yeast gene YMR205C): 0.8
- level of expressed mRNA in the presence/in the absence of chemical substance (yeast gene YMR261C): 0.8
- The level of expressed mRNA in the presence of chemical substance/The level of expressed mRNA in the absence of chemical substance (yeast gene YMR271C): 2.0
- The level of expressed mRNA in the presence of chemical substance/The level of expressed mRNA in the absence of chemical substance (yeast gene YMR296C): 2.6
- level of expressed mRNA in the presence/in the absence of chemical substance (yeast gene YMR323W): 1.1
- The level of expressed mRNA in the presence of chemical substance/The level of expressed mRNA in the absence of chemical substance (yeast gene YNL012W): 0.8
- level of expressed mRNA in the presence/in the absence of chemical substance (yeast gene YNL025C): 12.8
- The level of expressed mRNA in the presence of chemical substance/The level of expressed mRNA in the absence of chemical substance (yeast gene YNL045W): 1.3
- The level of expressed mRNA in the presence of chemical substance/The level of expressed mRNA in the absence of chemical substance (yeast gene YNL104C): 0.9
- The level of expressed mRNA in the presence of chemical substance/The level of expressed mRNA in the absence of chemical substance (yeast gene YNL106C): 1.5
- The level of expressed mRNA in the presence of chemical substance/The level of expressed mRNA in the absence of chemical substance (yeast gene YNL169C): 1.2
- level of expressed mRNA in the presence/in the absence of chemical substance (yeast gene YNL192W): 1.6
- The level of expressed mRNA in the presence of chemical substance/The level of expressed mRNA in the absence of chemical substance (yeast gene YNL231C): 0.5
- The level of expressed mRNA in the presence of chemical substance/The level of expressed mRNA in the absence of chemical substance (yeast gene YNL322C): 0.8
- The level of expressed mRNA in the presence of chemical substance/The level of expressed mRNA in the absence of chemical substance (yeast gene YNL331C): 1.0
- The level of expressed mRNA in the presence of chemical substance/The level of expressed mRNA in the absence of chemical substance (yeast gene YNL332W): 2.0
- The level of expressed mRNA in the presence of chemical substance/The level of expressed mRNA in the absence of chemical substance (yeast gene YNR019W): 1.2
- The level of expressed mRNA in the presence of chemical substance/The level of expressed mRNA in the absence of chemical substance (yeast gene YNR033W): 1.0
- The level of expressed mRNA in the presence of chemical substance/The level of expressed mRNA in the absence of chemical substance (yeast gene YNR059W): 1.4
- The level of expressed mRNA in the presence of chemical substance/The level of expressed mRNA in the absence of chemical substance (yeast gene YOL058W): 0.9
- level of expressed mRNA in the presence/in the absence of chemical substance (yeast gene YOL086C): 1.1
- level of expressed mRNA in the presence/in the absence of chemical substance (yeast gene YOL108C): 1.9
- level of expressed mRNA in the presence/in the absence of chemical substance (yeast gene YOL116W): 2.8
- The level of expressed mRNA in the presence of chemical substance/The level of expressed mRNA in the absence of chemical substance (yeast gene YOL126C): 1.6
- The level of expressed mRNA in the presence of chemical substance/The level of expressed mRNA in the absence of chemical substance (yeast gene YOL153C): 3.9
- level of expressed mRNA in the presence/in the absence of chemical substance (yeast gene YOL156W): 1.1
- The level of expressed mRNA in the presence of chemical substance/The level of expressed mRNA in the absence of chemical substance (yeast gene YOL165C): 0.9
- level of expressed mRNA in the presence/in the absence of chemical substance (yeast gene YOR002W): 0.9
- level of expressed mRNA in the presence/in the absence of chemical substance (yeast gene YOR085W): 1.0
- The level of expressed mRNA in the presence of chemical substance/The level of expressed mRNA in the absence of chemical substance (yeast gene YOR099W): 1.3
- level of expressed mRNA in the presence/in the absence of chemical substance (yeast gene YOR103C): 1.8
- level of expressed mRNA in the presence/in the absence of chemical substance (yeast gene YOR108W): 0.6
- level of expressed mRNA in the presence/in the absence of chemical substance (yeast gene YOR128C): 2.1
- The level of expressed mRNA in the presence of chemical substance/The level of expressed mRNA in the absence of chemical substance (yeast gene YOR130C): 1.0
- level of expressed mRNA in the presence/in the absence of chemical substance (yeast gene YOR142W): 1.0
- level of expressed mRNA in the presence/in the absence of chemical substance (yeast gene YOR176W): 0.9
- level of expressed mRNA in the presence/in the absence of chemical substance (yeast gene YOR178C): 2.3
- level of expressed mRNA in the presence/in the absence of chemical substance (yeast gene YOR251C): 1.8
- The level of expressed mRNA in the presence of chemical substance/The level of expressed mRNA in the absence of chemical substance (yeast gene YOR336W): 1.0
- The level of expressed mRNA in the presence of chemical substance/The level of expressed mRNA in the absence of chemical substance (yeast gene YOR347C): 2.2
- level of expressed mRNA in the presence/in the absence of chemical substance (yeast gene YOR348C): 2.0
- The level of expressed mRNA in the presence of chemical substance/The level of expressed mRNA in the absence of chemical substance (yeast gene YPL017C): 1.0
- level of expressed mRNA in the presence/in the absence of chemical substance (yeast gene YPL028W): 0.9
- level of expressed mRNA in the presence/in the absence of chemical substance (yeast gene YPL057C): 3.1
- level of expressed mRNA in the presence/in the absence of chemical substance (yeast gene YPL135W): 1.2
- level of expressed mRNA in the presence/in the absence of chemical substance (yeast gene YPL148C): 2.3
- The level of expressed mRNA in the presence of chemical substance/The level of expressed mRNA in the absence of chemical substance (yeast gene YPR026W): 1.3
- level of expressed mRNA in the presence/in the absence of chemical substance (yeast gene YPR113W): 1.3
- level of expressed mRNA in the presence/in the absence of chemical substance (yeast gene YPR165W): 1.0
- The level of expressed mRNA in the presence of chemical substance/The level of expressed mRNA in the absence of chemical substance (yeast gene YPR167C): 0.8
- level of expressed mRNA in the presence/in the absence of chemical substance (yeast gene YPR183W): 0.8

Source: patent publication US8192962B2, “Processes for detecting toxic substances” (Daikin Industries, Ltd., priority 2001, dated 2012)
